Reference: patent publication US10912780B2, “Heterocyclic compounds useful as anti-bacterial agents and method for production thereof” (Bugworks Research, Inc., priority 2017, dated 2021)
In brackets after ≈: the same amount, converted by molar mass. Several values for one entry are separate records, joined by “and”; a condition that tells them apart may be missing. Equal values may be shown once.

Columns and labels:
[1] = test system: K. pneumoniae [ATCC13883]; assay: Neutropenic thigh infection model in rat; format: in vivo; conditions: for Log 10 CFU/g thigh: individual animals
Experimental: Example 15 was tested in rat thigh infection model following intravenous infusion of compound at doses of 100 mg/kg once, 30 mg/kg once daily over a period of 1 hr to assess its efficacy. This study was performed following all ethical practices as laid down in the guidelines for animal care (Registration number No. 1852/PO/Rc/S/16/CPCSEA). The study was approved by the Institutional Animals Ethics Committee (IAEC) of the test facility. The formulation used was 10% of L-ascorbic acid in fresh MilliQ water (w/v) with pH adjusted to ˜4.0 with 1N NaOH. On Day −4 (4 days prior to the desired date of infection), each rat was dosed with a single intra-peritoneal injection of cyclophosphamide equivalent to 150 mg/kg, and returned to its cage. On Day−1 (a day prior to infection) each rat received a dose equivalent to 100 mg/kg of Cyclophosphamide. This procedure ensured that animals will be neutropenic on day 0. […] The inoculum was serially diluted ten-fold in sterile CSDB broth and 0.05 ml of six dilutions were plated onto CSDA agar plates to determine the viable count (CFU/ml) of inoculum. All animals were divided into different groups as specified in the experimental design for each microorganism. All infections were conducted in a biological safety cabinet, with appropriate personnel protection. […] A gentle shaking/mixing of inoculum between two animals was followed for uniform distribution.
Two hours post infection, animals in groups 4, 5 and 6 were administered intravenously with example 15, as a constant rate infusion (duration of infusion 1 h), under Ketamine 60 mg/kg IP+Xylazine 10 mg/kg IP anesthesia, at a dose volume of 10 ml/kg, at the rate of 0.16 ml/min. The dose levels of Example 15 were 10, 30 and 100 mg/kg. […] The total duration of the study was 10 h.
Animals were sacrificed 10 hr post infection and thigh tissues were harvested to enumerate the bacterial CFU count. Thigh muscles were aseptically excised, weighed, and placed into 1 ml of sterile CSDB broth, and homogenized (Omni Tip (220 V hand held)). Serial ten-fold dilutions of the thigh homogenates were prepared in sterile lactose broth and 0.05 mL of four dilutions for each thigh was plated onto CSDA agar plates. Bacterial colonies were enumerated following overnight incubation at […]. Bacterial densities were estimated as Log 10 CFU/gram thigh. The Mean±SD Log 10 CFU/gram thigh was estimated in each group. Significant differences between group means and control will be analyzed by One way ANOVA, followed by a Dunnett's multiple comparison test, using Graphpad Prism at 95% confidence levels. A P value of <0.05 was considered as significant.

[2] = test system: K. pneumoniae [ATCC13883]; assay: Neutropenic thigh infection model in rat; format: in vivo
[3] = test system: E. cloacae clinical strains; assay: Antibacterial susceptibility studies (MIC50 and MIC90) with clinical strains, CLSI guidelines; format: cell-based
[4] = test system: E. coli [ATCC25922]; assay: Urinary tract infection (UTI) rat model; format: in vivo; conditions: for MEAN ± SD (Log10 CFU/g kidneys) / Mean Log10 CFU/g kidney reduction (wrt 4 h PI control: 6.03 Log10 CFU/g kidneys) / MEAN ± SD (Log 10 CFU/ml Bladder) / Mean Log10 CFU/ml Bladder reduction (wrt 4 h PI control: 6.49 CFU/ml Bladder) / Log10 CFU/g (Left Kidney) / Log10 CFU/g (Right Kidney) / Log 10 CFU/ml Bladder: i.v., 1 h infusion, rat UTI, 24 h post infection; for Log10 CFU/g (Left Kidney) / Log10 CFU/g (Right Kidney) / Log 10 CFU/ml Bladder: individual animals
Experimental: The purpose of this study is to assess the efficacy of Example 15 against E. coli [ATCC25922] following single dose intravenous infusion doses of 3, 10 and 30 mg/kg in a Urinary Tract Infection Rat Model
Prior to the start of the infection process all animals were divided into different groups. All grouped cages of animals were carried to a procedure room, close to a biological safety cabinet. All infections were conducted in a biological safety cabinet, with appropriate personnel protection. Animals were anaesthetized by intraperitoneal injection of ketamine & xylazine (60+10 mg/kg i.p.) cocktail. Once the animals were in a sufficiently deep plane of anaesthesia as monitored by pedal reflex, the abdominal wall of each rat was shaved with electric clippers and the skin was cleansed with 10% povidine iodine. After a 1.5 to 2 cm lower abdominal wall incision, the abdominal wall muscles were separated with blunt dissection. […] After the replacement of the bladder to its original location, the abdominal muscles were approximated using suture and the skin was closed. The wounds were cleansed using 10% povidine iodine.
The IV formulation vehicle used was 10% of L-ascorbic acid in fresh MilliQ water (w/v) with pH adjusted to 4.0 with 1N Sodium hydroxide solution (w/v), and the dose volume was 10 mL/kg. Meropenem was prepared in MilliQ water and the pH of solution was adjusted to 4.5 using HCl. Four hours post infection, animals were dosed intravenously, as single doses (for test compounds), as a constant rate infusion, under Ketamine 60 mg/kg IP+Xylazine 10 mg/kg IP anesthesia, at a dose volume of 10 ml/kg, at the rate of 0.03 ml/min. The dose levels of the test compounds were 3, 10 and 30 mg/kg. Meropenem was administered as a single bolus dose at a dose volume of 5 ml/kg. All the animals were sacrificed at 24 h post infection, as specified in experimental design, by an overdose of CO2 in an appropriate exposure chamber. The group 1 animals were sacrificed at 4 h post infection.
The euthanized animals were dipped into 70% ethanol for surface decontamination. The organs were removed aseptically; the bladder was cut away near the urethra, and the kidneys were removed by blunt dissection to avoid bleeding. The bladder and each kidney separately were be homogenized in PBS. The CFU per milliliter homogenate of bladder, & kidney were determined after 18 to 24 h of incubation at 37° C.

[5] = test system: A. baumannii clinical strains; assay: Antibacterial susceptibility studies (MIC50 and MIC90) with clinical strains, CLSI guidelines; format: cell-based
[6] = 10 mg/kg, i.v., 1 h infusion, neutropenic rat, 10 hr post infection
[7] = 30 mg/kg, i.v., 1 h infusion, neutropenic rat, 10 hr post infection
[8] = 3 mg/kg, i.v., 1 h infusion, neutropenic rat, 10 hr post infection
[9] = Enterobacter cloacae, E. cloacae clinical strains (88 strains)

With `Cn1c(=O)ccc2ccc(F)c(CCNC[C@H]3CN(c4cnc5c(n4)NC(=O)CO5)C(=O)O3)c21` [Example 15, (S)-6-(5-(((2-(7-fluoro-1-methyl-2-oxo-1,2-dihydroquinolin-8-yl)ethyl)amino)methyl)-2-oxooxazolidin-3-yl)-2H-pyrazino[2,3-b][1,4]oxazin-3(4H)-one] the “MEAN ± SD (Log 10 CFU/g thigh)” value [1, 6] was 2.91 ± 0.24 Log 10 CFU/g thigh, the “MEAN ± SD (Log 10 CFU/g thigh)” value [1, 7] was 2.22 ± 0.50 Log 10 CFU/g thigh and the “Mean Log10CFU/g thigh reduction (wrt 2 h PI control: 4.72 Log10CFU/g thigh)” value (“Mean Log10CFU/g thigh reduction” for short) [1, 7] was 2.50 Log10CFU/g thigh. The “Log 10 CFU/g thigh” value [1, 6] was 3.18 Log 10 CFU/g thigh and 2.85 Log 10 CFU/g thigh and 2.71 Log 10 CFU/g thigh, the “Log 10 CFU/g thigh” value [1, 7] was 1.92 Log 10 CFU/g thigh and 1.94 Log 10 CFU/g thigh and 2.8 Log 10 CFU/g thigh and the “efficacy with respect to 2 h Post Infection (PI) control (in words)” value ([1]; rat thigh model, 10 and 30 mg/kg) was “significant dose dependent efficacy”. The “efficacy versus standard drug (in words)” value ([1]; rat thigh model, similar dose (10 mg/kg)) was “comparable to standard drug ciprofloxacin”, the “MEAN ± SD (Log 10 CFU/g thigh)” value [2, 8] was 4.10 ± 0.46 Log 10 CFU/g thigh and the “Mean Log10CFU/g thigh reduction” value [2, 8] was 0.62 Log10CFU/g thigh. The “Mean Log10CFU/g thigh reduction” value [2, 6] was 1.81 Log10CFU/g thigh, the “Log 10 CFU/g thigh” value ([2]; individual animals, 3 mg/kg, i.v., 1 h infusion, neutropenic rat, 10 hr post infection) was 4.1 Log 10 CFU/g thigh and 4.56 Log 10 CFU/g thigh and 3.65 Log 10 CFU/g thigh and the “efficacy compared to the 2 h PI control (in words)” value ([2]; rat thigh model, 3 mg/kg) was “bacteriostatic”. It also gave an MIC50 [3, 9] of 0.25 µg/mL (≈ 0.534 µM), an MIC90 [3, 9] of 1 µg/mL (≈ 2.13 µM) and a Minimum ([3]; lowest MIC among E. cloacae clinical strains (88 strains), no unit in this line) of 0.03. The “MEAN ± SD (Log10 CFU/g kidneys)” value ([4]; 3 mg/kg) was 7.13 ± 0.62 Log10 CFU/g kidneys, the “Mean Log10 CFU/g kidney reduction (wrt 4 h PI control: 6.03 Log10 CFU/g kidneys)” value (“Mean Log10 CFU/g kidney reduction” below) ([4]; 3 mg/kg) was −1.1 Log10 CFU/g kidneys and the “MEAN ± SD (Log 10 CFU/ml Bladder)” value ([4]; 3 mg/kg) was 7.01 ± 0.23 Log 10 CFU/ml. The “Mean Log10 CFU/ml Bladder reduction (wrt 4 h PI control: 6.49 CFU/ml Bladder)” value (shortened to “Mean Log10 CFU/ml Bladder reduction”) ([4]; 3 mg/kg) was −0.52 Log10 CFU/ml, the “MEAN ± SD (Log10 CFU/g kidneys)” value ([4]; 10 mg/kg) was 5.82 ± 0.94 Log10 CFU/g kidneys and the “Mean Log10 CFU/g kidney reduction” value ([4]; 10 mg/kg) was 0.21 Log10 CFU/g kidneys. The “MEAN ± SD (Log 10 CFU/ml Bladder)” value ([4]; 10 mg/kg) was 5.85 ± 0.27 Log 10 CFU/ml, the “Mean Log10 CFU/ml Bladder reduction” value ([4]; 10 mg/kg) was 0.64 Log10 CFU/ml and the “MEAN ± SD (Log10 CFU/g kidneys)” value ([4]; 30 mg/kg) was 4.46 ± 0.52 Log10 CFU/g kidneys. The “Mean Log10 CFU/g kidney reduction” value ([4]; 30 mg/kg) was 1.57 Log10 CFU/g kidneys, the “MEAN ± SD (Log 10 CFU/ml Bladder)” value ([4]; 30 mg/kg) was 4.80 ± 0.17 Log 10 CFU/ml and the “Mean Log10 CFU/ml Bladder reduction” value ([4]; 30 mg/kg) was 1.69 Log10 CFU/ml. The “Log10 CFU/g (Left Kidney)” value ([4]; 3 mg/kg) was 6.81 Log10 CFU/g and 6.44 Log10 CFU/g and 6.48 Log10 CFU/g, the “Log10 CFU/g (Right Kidney)” value ([4]; 3 mg/kg) was 7.51 Log10 CFU/g and 7.68 Log10 CFU/g and 7.86 Log10 CFU/g and the “Log 10 CFU/ml Bladder” value ([4]; 3 mg/kg) was 5.54 Log 10 CFU/ml and 6.79 Log 10 CFU/ml and 7.00 Log 10 CFU/ml. The “Log10 CFU/g (Left Kidney)” value ([4]; 10 mg/kg) was 4.69 Log10 CFU/g and 5.68 Log10 CFU/g and 4.80 Log10 CFU/g, the “Log10 CFU/g (Right Kidney)” value ([4]; 10 mg/kg) was 6.66 Log10 CFU/g and 6.13 Log10 CFU/g and 6.97 Log10 CFU/g and the “Log 10 CFU/ml Bladder” value ([4]; 10 mg/kg) was 5.54 Log 10 CFU/ml and 5.97 Log 10 CFU/ml and 6.05 Log 10 CFU/ml. For the same compound, the “Log10 CFU/g (Left Kidney)” value ([4]; 30 mg/kg) was 4.98 Log10 CFU/g and 3.84 Log10 CFU/g and 4.12 Log10 CFU/g, the “Log10 CFU/g (Right Kidney)” value ([4]; 30 mg/kg) was 4.66 Log10 CFU/g and 4.05 Log10 CFU/g and 5.11 Log10 CFU/g and the “Log 10 CFU/ml Bladder” value ([4]; 30 mg/kg) was 4.61 Log 10 CFU/ml and 4.91 Log 10 CFU/ml and 4.90 Log 10 CFU/ml. The “efficacy compared to the 4 h PI control (in words)” value ([4]; rat UTI model, 3 mg/kg) was “bacteriostatic”, the “efficacy with respect to 4 h PI control (in words)” value ([4]; rat UTI model, 10 and 30 mg/kg) was “significant dose dependent” and the “efficacy versus standard drug (in words)” value ([4]; rat UTI model, similar dose (30 mg/kg)) was “comparable to standard drug meropenem”. For the same compound, the MIC ATCC19606 ([5]; A. baumannii reference strain ATCC19606, no unit in this line) was 0.06 µg/mL (≈ 0.128 µM), the MIC50 ([5]; Acinetobacter baumannii) was 0.06 µg/mL (≈ 0.128 µM) and the MIC90 ([5]; Acinetobacter baumannii) was 0.125 µg/mL (≈ 0.267 µM). The Minimum ([5]; lowest MIC among A. baumannii clinical strains (169 strains; Example 15: 132), no unit in this line) was 0.03.
